Laboratory results as given in US20220273598A1, “METHOD FOR TREATING ALZHEIMER'S DISEASE BY INHIBITING UPTAKE OF AMINO ACIDS BY T CELLS” (SHANGHAI GREEN VALLEY PHARMACEUTICAL CO., LTD., priority 2019, published 2022).
Entries after “also recorded” stand apart in the source; their conditions may differ.

Experiments:
[1] = test system: 5×FAD transgenic (Tg) mice; test: Flow cytometry of Th1 cells and M1 microglia in brain homogenate; assay type: in vivo, mouse; conditions: 6-month-old 5×FAD mice, 50 mg/kg intraperitoneal every day for one month, versus vehicle
Procedure: Animals. […] Mice were randomly assigned to different groups before treatment. […] The mouse brain was collected and stained for immune cell analysis and cytokine analysis. […] For OM1 treatment, at the age of 6.5 months, based on 450 mg b.i.d. (twice a day) in the phase III trial, Tg mice were treated with 100 mg/kg OM1 by oral administration once a day for one month. […] The brains and feces of the mice were then used for different analyses.
Flow cytometry sample preparation and analysis. Mice were anesthetized, blood samples were collected into EDTA-containing tubes, and red blood cells were removed using 1×red blood lysis buffer. Before tissue collection, the brains were perfused with ice-cold PBS to avoid sampling the circulating blood immune cells, and the brains were removed, chopped into pieces and dissected according to the introduction of the Adult Brain Dissociation Kit (Miltenyi, Cat No. 130-107-677) using the gentleMACS dissociator (Miltenyi Biotec). The brain homogenate was filtered through a 70-μm cell strainer and centrifuged at 300×g for 5 min at 4° C. The cell pellet was resuspended in cold PBS buffer and centrifuged again at 300×g for 5 min at 4° C. All samples were counted and adjusted to a density of 2-3×10^6/100 μL, labeled with a Live/Dead kit for 30 min, and then centrifuged at 500×g for 3 min at 4° C. The cells were resuspended in 100 μL PBS buffer, blocked with anti-CD16/32 (Biolegend, Cat No. 101320) for 10 min, and incubated with the antibody according to the manufacturers' protocols at 4° C. for 30 min. […]

LAT1 = LAT1 (Homo sapiens, UniProt Q01650); conditions: supplier description; cited from earlier work
Sequence of LAT1 (Q01650 whole entry, species assumed): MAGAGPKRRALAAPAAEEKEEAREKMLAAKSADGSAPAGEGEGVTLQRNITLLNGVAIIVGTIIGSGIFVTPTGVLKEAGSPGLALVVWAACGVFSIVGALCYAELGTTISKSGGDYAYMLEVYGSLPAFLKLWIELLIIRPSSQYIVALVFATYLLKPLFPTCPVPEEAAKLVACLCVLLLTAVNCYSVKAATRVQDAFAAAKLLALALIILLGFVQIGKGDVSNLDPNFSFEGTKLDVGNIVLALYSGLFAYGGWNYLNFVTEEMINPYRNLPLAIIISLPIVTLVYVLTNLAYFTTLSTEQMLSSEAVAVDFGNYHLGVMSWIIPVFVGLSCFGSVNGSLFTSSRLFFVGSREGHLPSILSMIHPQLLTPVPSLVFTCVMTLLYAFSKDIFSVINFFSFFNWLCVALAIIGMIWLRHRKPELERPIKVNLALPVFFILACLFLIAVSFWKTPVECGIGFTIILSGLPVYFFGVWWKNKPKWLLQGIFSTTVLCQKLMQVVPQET
Sequence of LAT1 (P08195 102-630 partner, species assumed): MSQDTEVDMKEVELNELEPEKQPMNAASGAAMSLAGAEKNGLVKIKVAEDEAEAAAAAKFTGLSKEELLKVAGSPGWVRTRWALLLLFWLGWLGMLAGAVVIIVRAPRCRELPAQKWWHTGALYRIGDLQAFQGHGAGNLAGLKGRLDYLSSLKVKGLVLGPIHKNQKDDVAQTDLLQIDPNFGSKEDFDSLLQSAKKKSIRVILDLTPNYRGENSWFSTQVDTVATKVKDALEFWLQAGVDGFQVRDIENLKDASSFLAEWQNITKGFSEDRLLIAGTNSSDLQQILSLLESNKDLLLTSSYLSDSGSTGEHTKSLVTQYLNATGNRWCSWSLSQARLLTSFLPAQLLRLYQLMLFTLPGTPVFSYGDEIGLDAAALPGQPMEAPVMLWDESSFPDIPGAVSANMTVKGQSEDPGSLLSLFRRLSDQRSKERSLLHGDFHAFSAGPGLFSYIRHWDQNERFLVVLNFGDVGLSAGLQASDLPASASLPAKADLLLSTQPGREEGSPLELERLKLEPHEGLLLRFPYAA

SLC7A5 = target: T1, SLC7A5 (Mus musculus, UniProt Q9Z127); test: Uptake of 13C-labelled phenylalanine by naive CD4+ T cells; assay type: cell-based; conditions: 0.5 h incubation
T1 construct: endogenous in cells; host or cells: naive CD4+ T cells from splenocytes of C57BL/6 mice (Th0 / IL-12-induced Th1)
T1 sequence (Q9Z127 whole entry): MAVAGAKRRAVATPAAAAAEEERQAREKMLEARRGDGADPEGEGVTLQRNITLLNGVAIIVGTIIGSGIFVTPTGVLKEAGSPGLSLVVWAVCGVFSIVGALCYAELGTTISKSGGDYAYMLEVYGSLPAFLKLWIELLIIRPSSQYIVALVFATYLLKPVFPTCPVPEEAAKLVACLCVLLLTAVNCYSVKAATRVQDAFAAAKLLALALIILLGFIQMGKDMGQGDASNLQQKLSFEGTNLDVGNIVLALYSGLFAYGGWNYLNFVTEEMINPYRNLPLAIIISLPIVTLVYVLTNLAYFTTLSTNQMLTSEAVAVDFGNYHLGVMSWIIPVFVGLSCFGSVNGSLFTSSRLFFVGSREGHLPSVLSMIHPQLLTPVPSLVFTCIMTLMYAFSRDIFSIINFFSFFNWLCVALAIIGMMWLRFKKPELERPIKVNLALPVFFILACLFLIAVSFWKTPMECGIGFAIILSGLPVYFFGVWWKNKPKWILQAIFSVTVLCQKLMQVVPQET
T1 sequence (P10852 whole entry partner): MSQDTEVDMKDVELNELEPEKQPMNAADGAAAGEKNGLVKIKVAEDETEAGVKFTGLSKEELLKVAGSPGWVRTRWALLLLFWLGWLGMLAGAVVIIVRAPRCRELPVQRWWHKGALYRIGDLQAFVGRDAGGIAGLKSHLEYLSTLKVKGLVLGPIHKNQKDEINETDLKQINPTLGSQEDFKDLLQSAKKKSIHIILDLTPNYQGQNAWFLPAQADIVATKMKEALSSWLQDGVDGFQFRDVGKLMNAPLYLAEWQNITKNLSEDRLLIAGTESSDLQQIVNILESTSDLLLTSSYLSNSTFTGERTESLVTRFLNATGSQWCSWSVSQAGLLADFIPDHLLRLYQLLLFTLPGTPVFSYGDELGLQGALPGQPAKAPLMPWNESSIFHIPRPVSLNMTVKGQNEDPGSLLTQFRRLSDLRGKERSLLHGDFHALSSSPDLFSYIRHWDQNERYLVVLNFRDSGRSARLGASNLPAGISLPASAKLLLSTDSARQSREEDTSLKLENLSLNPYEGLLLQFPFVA
Procedure: Uptake of phenylalanine. Naive CD4^+ T cells were separated from the splenocytes of 8-month-old C57BL/6 female mice using the Naive CD4^+ T cell Isolation Kit (Stem Cell, Cat No. 19765) and were induced to Th1 differentiation by 20 ng/mL IL-12. After 3 days, a total of 5×10^5 cells/well Th1 cells and Th0 cells in 0.5 mL of RPMI-1640 medium were plated into 48-well plates. ^13C-labelled phenylalanine and 5 mM amino transporter inhibitor BCH were added into indicated wells. After 0.5 h, cells were collected and washed twice with ice-cold D-PBS. 50 μL deionized water was added and cells were lysed through freezing and thawing twice at −80° C. The cell lysate was centrifuged at 12000×g for 10 min and ^13C-labelled phenylalanine in the supernatant was analyzed by Mass spectrometry.

C57 mice = test: Intraperitoneal injection of phenylalanine and isoleucine, blood Th1 cells by FACS; assay type: in vivo, mouse; conditions: WT mice, intraperitoneal injection 50 mg/kg for 4 days
Procedure: Animals. Tg mice and co-housed WT mice (corresponding WT mice generated by mating Tg mice and C57 mice) were housed in the same cage after birth. WT mice (C57) were housed in separate cages to avoid cross-transfer of microbiota. All mice were kept in a 23° C. room with a 12-hour (h) light-dark cycle. Mice were randomly assigned to different groups before treatment. For time course analysis of Tg mice, male and female Tg mice were sacrificed at 2, 3, 5, 7 and 9 months of age. The mouse brain was collected and stained for immune cell analysis and cytokine analysis. Before the mice were sacrificed, feces were collected for gut microbiota analysis. For OM1 treatment, at the age of 6.5 months, based on 450 mg b.i.d. (twice a day) in the phase III trial, Tg mice were treated with 100 mg/kg OM1 by oral administration once a day for one month. Behavioral tests were performed to monitor cognitive activity after the last treatment. […] All mouse movements that occur in PhenoTyper (HomeCage) are recorded by a computerized tracking system, which calculates the time and number of entrances required to reach 80% of the performance standard (Noldus, Ethovision). […]
Flow cytometry sample preparation and analysis. […] All samples were counted and adjusted to a density of 2-3×10^6/100 μL, labeled with a Live/Dead kit for 30 min, and then centrifuged at 500×g for 3 min at 4° C. […]

naive CD4+ T cells = test: In vitro differentiation and proliferation induced by phenylalanine and isoleucine; assay type: cell-based, mouse; conditions: amino acid added directly to naive CD4+ T cell culture; for Th1 cell proliferation: CellTrace
Procedure: In Vitro differentiation and proliferation induced by phenylalanine and isoleucine. Naive CD4^+ T cells were separated from the splenocytes of 8-month-old C57BL/6 female mice using the Naive CD4^+ T cell Isolation Kit (Stem Cell, #19765), and the cells were stained with CellTrace (Thermo Fisher, #C34557). A total of 1×10^5 cells/well in 0.2 mL of RPMI-1640 medium were plated in 96-well plates, and the culture medium was supplemented with cytokines or blocking antibodies. Th0: 10 ng/mL mIL-2; Th1:10 ng/mL mIL-2, 5000 ng/mL 11B11. Phenylalanine (final concentration, 2 mmol/L), isoleucine (final concentration, 2 mmol/L) and OM1 (final concentration, 100 μg/mL) were added into the indicated wells, respectively. After incubation at 37° C. in 5% CO2 for 5 days, cells were acquired on a BD Fortessa cytometer, and data were analyzed using FlowJo software.

| uptake of 13C-labelled phenylalanine by CD4+ T cells (SLC7A5) | SMILES | proportion of pro-inflammatory Th1 cells in the mouse brain ([1]; 50 mg/kg) | proportion of pro-inflammatory Th1 cells in the mouse brain ([1]; listed as JPH203, 50 mg/kg) | LAT1 selectivity (LAT1) | Th1 cell count in the blood (C57 mice) | Th0 cell differentiation into Th1 cells (naive CD4+ T cells) | Th1 cell proliferation (naive CD4+ T cells) |
| --- | --- | --- | --- | --- | --- | --- | --- |
| blocked | Nc1cc(COc2c(Cl)cc(C[C@H](N)C(=O)O)cc2Cl)c2oc(-c3ccccc3)nc2c1 [JPH 203] | significantly reduces the proportion of Th1 cells in the mouse brain | effectively inhibits the proportion of Th1 cells in the brain; also recorded: significantly downregulated the proportion of pro-inflammatory Th1 cells in the mouse brain | selectively inhibits LAT1 |  |  |  |
|  | CC[C@H](C)[C@H](N)C(=O)O [isoleucine] |  |  |  | increased significantly | increased | increased |
|  | N[C@@H](Cc1ccccc1)C(=O)O [phenylalanine] |  |  |  | increased significantly | increased | increased |
